“Also recorded” adds a separate entry of the source. Where a SMILES comes first, the peptide text is derived from it. The star is where a group is joined. Cbz = O=C(OCc1ccccc1)*
What was measured:
Format in all cases: cell-based
PERK = PERK autophosphorylation in J558 cells
ERdj4 promoter = test: ERdj4GL3 promoter luciferase reporter in MEF cells; details: wt MEF, Tm 1 μg/ml 16 hours or cotransfected XBP-1s
Procedure: (A) Wild type and XBP-1^−/− MEF cells were treated with 10 μg/ml Tm for the indicated time periods. Total RNAs were isolated and subjected to Northern blot analysis. The same blot was hybridized sequentially with BiP, CHOP, ERdj4, p58^ipk, ATF6α and Gla probes. The p58^ipk probe is probe A, from the 5′ end of the gene. Ethidium bromide staining of the gel before blotting is shown at the bottom for loading control. (B) All isoforms of p58^ipk are XBP-1 dependent. Here, Northern blot analysis was performed with probe B which recognizes sequences at the 3′ end of the gene. (C) XBP-1-dependent genes are also IRE1α-dependent. Northern blot analysis of RNA prepared from IRE 1α^−/− MEFs treated with Tm for varying time periods and assessed for expression of ERdj4 and p58^ipk. (D) The ERdj4GL3 reporter was transfected with or without XBP-1s plasmid into wild type and XBP-1^−/− MEF cells. Cells were treated with Tm at 1 μg/ml for 16 hours before harvesting as indicated. Luciferase activity was normalized to the Renilla activity. (E) Induction of BiP, ERdj4 and p58^ipk in primary B cells by LPS. B220+ primary B cells were isolated from spleens of wildtype or XBP-1^−/− RAG2^−/− lymphoid chimeras. Cells were untreated or stimulated for three days with 20 μg/ml LPS. Expression of BiP, ERdj4 and p58^ipk was determined by Northern blot analysis […]

XBP-1s = test: UPRE-luciferase reporter in NIH3T3 cells
Procedure: (A) Ubiquitination of XBP-1 in HeLa cells were cotransfected with XBP-1u and His-tagged ubiquitin expression plasmids. (B) Degradation rates of XBP-1u and XBP-1s proteins were determined by pulse labeling J558 cells with ^35S Met/Cys for 1 hr and chasing for the indicated times. (C) Effect of XBP-1u on XBP-1s dependent UPRE activation in PI-treated NIH3T3 cells with 8-fold excess of XBP-1u plasmids. Transfected cells were treated with MG-132 for 16 hrs before harvesting for luciferase assays. Values represent fold induction of activity compared to the reporter alone after normalizing to Renilla. (D) Generation and expression of lysine to arginine XBP-1u mutants. Two or three lysine residues in the C-terminus of XBP-1u were replaced by arginine to generate XBP-1uKK (235, 252) and XBP-1uKKK(146, 235, 252) by site-directed mutagenesis. dn-XBP contains the N-terminal 188 aa of XBP-1u. Western blot analysis was performed with NIH3T3 extracts transfected with the indicated plasmids. E) Inhibition of XBP-1 dependent activation of the UPRE reporter in NIH 3T3 cells by XBP-1u lysine to arginine mutants.
Two or three lysine residues in the C-terminus of XBP-1u were replaced by arginines to generate XBP-1uKK (K235R, K252R) and XBP-1uKKK(K146R, K235R, K252R) by site-directed mutagenesis (Iwakoshi et al.2003 Nature Immunology 4: 321-329). dn-XBP contains the N-terminal 188 aa of XBP-1u. NTH3T3 cells were transfected by using the Lipofectamine2000 reagent as recommended by the manufacturer (Invitrogen, Carlsbad, Calif.) with indicated amount of UPRE (UPR element) reporter (Wang et al. 2000 J Biol Chem 275: 27013-27020) and various effector plasmids. Cells were treated for 16 hours before harvest in certain experiments. Cells were lysed in passive lysis buffer for dual luciferase assays according to the manufacturer's protocol (Promega, Madison, Wis.).

In the case of `CC(C)C[C@@H](C=O)NC(=O)[C@H](CC(C)C)NC(=O)[C@H](CC(C)C)NC(=O)OCc1ccccc1` [MG-132] (Cbz-Leu-Leu-Leu-aldehyde), the “effect on Tm-induced autophosphorylation of PERK” value (PERK) is reported as “a decrease in the autophosphorylation of PERK; also recorded: very marked decrease in the autophosphorylation of PERK”.

With tunicamycin [Tm] the “amount of phosphorylated PERK” value (PERK) was “led to an increase in the amount of phosphorylated PERK” and the “ERdj4 promoter luciferase reporter induction” value (ERdj4 promoter) was “induced by Tm as well as by cotransfected XBP-1s”.

B1: dn-XBP: dominant negative XBP-1 containing the N-terminal 188 aa, lacking transactivation domain, retaining leucine zipper (protein)
chain: MVVVAAAPSAATAAPKVLLLSGQPASGGRALPLMVPGPRAAGSEASGTPQARKRQRLTHLSPEEKALRRKLKNRVAAQTARDRKKARMSELEQQVVDLEEENHKLQLENQLLREKTHGLVVENQELRTRLGMDTLDPDEVPEVEAKGSGVRLVAGSAESAAGAGPVVTSPEHLPMDSDTVASSDSESD
In the case of B1, the “effect on transactivation of UPRE reporter by XBP-1s” value (XBP-1s; in the absence of PIs) is reported as “inhibits XBP-1s -induced transactivation very efficiently”.

B2: XBP-1s: vector encoding only the spliced form of murine XBP-1, a protein of 371 aa (protein)
chain: MVVVAAAPSAATAAPKVLLLSGQPASGGRALPLMVPGPRAAGSEASGTPQARKRQRLTHLSPEEKALRRKLKNRVAAQTARDRKKARMSELEQQVVDLEEENHKLQLENQLLREKTHGLVVENQELRTRLGMDTLDPDEVPEVEAKGSGVRLVAGSAESAAGAGPVVTSPEHLPMDSDTVASSDSESDILLGILDKLDPVMFFKCPSPESASLEELPEVYPEGPSSLPASLSLSVGTSSAKLEAINELIRFDHVYTKPLVLEIPSETESQTNVVVKIEEAPLSSSEEDHPEFIVSVKKEPLEDDFIPELGISNLLSSSHCLRPPSCLLDAHSDCGYEGSPSPFSDMSSPLGTDHSWEDTFANELFPQLISV
B2 was tested, and the UPRE reporter activity (XBP-1s; in the absence of treatment) was “greatly increased reporter activity” and the “ERdj4 promoter luciferase reporter induction” value (ERdj4 promoter) was “induced by Tm as well as by cotransfected XBP-1s”.

— US20040170622A1, “Methods and compositions for modulating XBP-1 activity” (President and Fellows of Harvard College, priority 2002, published 2004)
